Laboratory results as given in ChEMBL document CHEMBL1138846, “Synthesis of C2-C3'N-linked macrocyclic taxoids. Novel docetaxel analogues with high tubulin activity” (J Med Chem, 2004).
Active and inactive are the calls of the source. No cut-off for these calls is given here.

Legend:
MCF7 = experiment: Concentration required for inhibition of 50% human breast MCF 7 cell line proliferation after 72 hr of incubation; type: functional, cell-based; conditions: MCF7, 72 h
HCT-116 = experiment: Concentration required for inhibition of 50% human colon HCT 116 cell line proliferation after 72 hr of incubation; type: functional, cell-based; conditions: HCT-116, 72 h
KB = experiment: Concentration required for inhibition of 50% human […] KB cell line proliferation after 72 hr of incubation; type: functional, cell-based
[1] = Ratio of inhibitory concentration of compound against microtubule disassembly to that of inhibitory concentration of paclitaxel; type: functional
[2] = Concentration required to inhibit 50% of rate of microtubule disassembly; type: functional
[3] = Ratio of inhibitory concentration of compound against microtubule disassembly to that of inhibitory concentration of paclitaxel; Inactive; type: functional

| IC50 (MCF7) [nM] | IC50 (HCT-116) [nM] | IC50 [2] [nM] | Compound | IC50 (KB) [nM] | Ratio [1] | Ratio [3] |
| --- | --- | --- | --- | --- | --- | --- |
| 350 | 700 |  | CC(=O)O[C@@]12CO[C@@H]1C[C@H](O)[C@@]1(C)C(=O)[C@H](O)C3=C(C)[C@@H]4C[C@@](O)([C@@H](OC(=O)c5cccc(c5)C/C=C/CCCCC(=O)N[C@@H](c5ccccc5)[C@@H](O)C(=O)O4)C12)C3(C)C (stereo partly drawn) | 70 | 1 |  |
|  |  | 1000 | CC(=O)O[C@H]1C(=O)[C@@]2(C)[C@H]([C@H](OC(=O)c3ccccc3)[C@]3(O)C[C@H](OC(=O)[C@H](O)[C@@H](NC(=O)c4ccccc4)c4ccccc4)C(C)=C1C3(C)C)[C@]1(OC(C)=O)CO[C@@H]1C[C@@H]2O [PACLITAXEL] |  |  |  |
| 1 | 2.2 |  | CC(=O)O[C@@]12CO[C@@H]1C[C@H](O)[C@@]1(C)C(=O)[C@H](O)C3=C(C)[C@@H](OC(=O)[C@H](O)[C@@H](NC(=O)OC(C)(C)C)c4ccccc4)C[C@@](O)([C@@H](OC(=O)c4ccccc4)[C@H]21)C3(C)C [DOCETAXEL] | 0.3 | 0.5 |  |
| > 10000 | > 10000 |  | CC(=O)O[C@@]12CO[C@@H]1C[C@H](O)[C@@]1(C)C(=O)[C@H](O)C3=C(C)[C@@H]4C[C@@](O)([C@@H](OC(=O)CCCC/C=C\CCCCC(=O)N[C@@H](c5ccccc5)[C@@H](O)C(=O)O4)C12)C3(C)C (stereo partly drawn) | 8000 | 7.3 |  |
| > 10000 | 8000 |  | CC(=O)O[C@@]12CO[C@@H]1C[C@H](O)[C@@]1(C)C(=O)[C@H](O)C3=C(C)[C@@H]4C[C@@](O)([C@@H](OC(=O)c5cccc(c5)C/C=C\CCCCC(=O)N[C@@H](c5ccccc5)[C@@H](O)C(=O)O4)C12)C3(C)C (stereo partly drawn) | 200 | 1.4 |  |
|  |  |  | C=CCCCCC(=O)N[C@@H](c1ccccc1)[C@@H](O)C(=O)O[C@H]1C[C@@]2(O)[C@@H](OC(=O)c3cccc(CC=C)c3)C3[C@](C)(C(=O)[C@H](O)C(=C1C)C2(C)C)[C@@H](O)C[C@H]1OC[C@@]31OC(C)=O (stereo partly drawn) | 10 | 1 |  |
|  |  |  | CC(=O)O[C@@]12CO[C@@H]1C[C@H](O)[C@@]1(C)C(=O)[C@H](O)C3=C(C)[C@@H]4C[C@@](O)([C@@H](OC(=O)c5ccc(cc5)C/C=C/CCCC(=O)N[C@@H](c5ccccc5)[C@@H](O)C(=O)O4)C12)C3(C)C (stereo partly drawn) | 1600 |  | inactive |
| 9 | 10 |  | C=CCCCCC(=O)N[C@@H](c1ccccc1)[C@@H](O)C(=O)O[C@H]1C[C@@]2(O)[C@@H](OC(=O)c3ccccc3CC=C)C3[C@](C)(C(=O)[C@H](O)C(=C1C)C2(C)C)[C@@H](O)C[C@H]1OC[C@@]31OC(C)=O (stereo partly drawn) | 3.2 | 1.2 |  |
|  |  |  | C=CCCCCC(=O)N[C@@H](c1ccccc1)[C@@H](O)C(=O)O[C@H]1C[C@@]2(O)[C@@H](OC(=O)c3ccc(CC=C)cc3)C3[C@](C)(C(=O)[C@H](O)C(=C1C)C2(C)C)[C@@H](O)C[C@H]1OC[C@@]31OC(C)=O (stereo partly drawn) | 40 |  | inactive |
|  |  |  | CC(=O)O[C@@]12CO[C@@H]1C[C@H](O)[C@@]1(C)C(=O)[C@H](O)C3=C(C)[C@@H]4C[C@@](O)([C@@H](OC(=O)c5ccc(cc5)C/C=C\CCCCC(=O)N[C@@H](c5ccccc5)[C@@H](O)C(=O)O4)C12)C3(C)C (stereo partly drawn) | 280 |  | inactive |
| 2100 | 2400 |  | CC(=O)O[C@@]12CO[C@@H]1C[C@H](O)[C@@]1(C)C(=O)[C@H](O)C3=C(C)[C@@H]4C[C@@](O)([C@@H](OC(=O)c5ccccc5C/C=C/CCCCC(=O)N[C@@H](c5ccccc5)[C@@H](O)C(=O)O4)C12)C3(C)C (stereo partly drawn) | 700 | 6 |  |
